Test results taken from ChEMBL document CHEMBL1150433, “Synthesis and activity of conformationally-constrained macrocyclic norstatine-based inhibitors of HIV protease” (Bioorg Med Chem Lett, 1996).

Columns and labels:
[1] = molecular target: Human immunodeficiency virus type 1 protease (Human immunodeficiency virus 1, UniProt Q72874); assay: Compound was evaluated for the inhibition of HIV protease
MT2 = assay: Antiviral activity against […] RF infected MT-2 cells; type: functional, cell-based; details: Homo sapiens

Row | Structure (SMILES) | IC50 [1] | EC50 (MT2)
1 | CC(C)(C)NC(=O)[C@@H]1CCCN1C(=O)[C@@H](O)[C@@H]1Cc2ccc(cc2)OCCCOc2cc3ccccc3cc2C(=O)N[C@@H](CC(N)=O)C(=O)N1 | 0.019 µM | 0.076 µM
2 | CC(C)(C)OC(=O)[C@@H]1CCCN1C[C@@H](O)[C@H](Cc1ccccc1)NC(=O)[C@H](CC(N)=O)NC(=O)c1ccc2ccccc2n1 | 0.023 µM | –
3 | CC(C)(C)NC(=O)[C@@H]1CCCN1C(=O)[C@H](O)[C@@H]1Cc2ccc(cc2)OCCCOc2cc3ccccc3cc2C(=O)N[C@@H](CC(N)=O)C(=O)N1 | 3.8 µM | –
